Laboratory results as given in PMC8910920 (International Journal of Molecular Sciences, 2022).

Key:
[1] = biological target: T1, hM3 (Homo sapiens, UniProt P20309); assay: Radioligand binding assay, CHO cells, hM3; conditions: radioligand [3H]4-DMAP
T1 construct: host or cells: CHO
Protocol: To define whether β–lactam derivative RGM8-51 could bind to CGRPR, CB2 and M3 receptors, in vitro binding assays were performed, using CHO cell lines transfected with these receptors. The degree of binding was determined by using specific radioligands for each receptor (Table 2, footnote).
These studies were subcontracted to Eurofins-CEREP or Eurofins-PANLABS. Briefly, agonists and antagonist assays were performed in cell cultures overexpressing the corresponding channel (CHO: TRPV1 and TRPA1; HEK293: TRPV3 and ASIC3). In vitro pharmacology, cellular channel functional assays: the compound was prepared in assay buffer to the final concentration, 10 μM. […] The agonist assay was conducted on fluorimeter instruments where the test compound, vehicle controls, and reference agonist were added to the assay plate after a fluorescence baseline was established. […] For the antagonist assay, the compound was pre-incubated for five minutes at room temperature, and then challenged with the EC80 concentration of the reference agonist after establishment of a fluorescence baseline. […] Binding assay results are expressed as a percent of control specific binding. […] Aqueous solubility (μM) was determined by comparing the peak area of the principal peak in a calibration standard (200 μM) containing organic solvent (methanol/water, 60/40, v/v) with the peak area of the corresponding peak in a buffer sample. […]

[2] = test system: DRG sensory neurons; assay: Current-clamp, membrane resting potential of DRG sensory neurons; type: cell-based, rat; conditions: 10 μM
Protocol: In order to test if compound RGM8-51 could affect the membrane resting potential (MRP) of DRG sensory neurons, we also measured MRP of sensory neurons in the current-clamp mode of patch-clamp.
Changes in membrane potential were studied in neonatal DRGs isolated from 3–5 days-old Wistar rats. After isolation, DRGs were digested first using collagenase type IA (0.25% w/v) in DMEM GlutaMax with penicillin/streptomycin (P/S) solution (1% v/v) for 1 h (37 °C, 5% CO2, ThermoScientific incubator) and secondly by mechanical dissociation. Single cell suspension was passed through a […] cell strainer and washed with DMEM GlutaMax with FBS (10%v/v) and P/S solution (1% v/v). […]
For current-clamp recordings from rat DRG neurons the intracellular pipette solution contained (in mM): 4 NaCl, 126 K gluconate, 0.02 CaCl2, 1 MgSO4, 5 HEPES, 15 glucose, 3 ATP, 0.1 GTP and 5 EGTA, pH 7.2 with KOH and the extracellular solution contained (in mM): 140 NaCl, 4 KCl, 2 CaCl2, 2 MgCl2, 10 HEPES, 5 glucose and 20 mannitol, pH 7.4 with NaOH. The membrane potential was measured in the absence and the presence of compound RGM8-51 at 10 μM in a time interval of 1 min.
Data analysis: For the whole-cell patch-clamp experiments, results are expressed as the percentage of remaining activation of the TRPM8 channel. […] All data are expressed as the mean ± standard error of the mean (SEM) (n = 5–8). […]

T1 sequence (P20309 whole entry): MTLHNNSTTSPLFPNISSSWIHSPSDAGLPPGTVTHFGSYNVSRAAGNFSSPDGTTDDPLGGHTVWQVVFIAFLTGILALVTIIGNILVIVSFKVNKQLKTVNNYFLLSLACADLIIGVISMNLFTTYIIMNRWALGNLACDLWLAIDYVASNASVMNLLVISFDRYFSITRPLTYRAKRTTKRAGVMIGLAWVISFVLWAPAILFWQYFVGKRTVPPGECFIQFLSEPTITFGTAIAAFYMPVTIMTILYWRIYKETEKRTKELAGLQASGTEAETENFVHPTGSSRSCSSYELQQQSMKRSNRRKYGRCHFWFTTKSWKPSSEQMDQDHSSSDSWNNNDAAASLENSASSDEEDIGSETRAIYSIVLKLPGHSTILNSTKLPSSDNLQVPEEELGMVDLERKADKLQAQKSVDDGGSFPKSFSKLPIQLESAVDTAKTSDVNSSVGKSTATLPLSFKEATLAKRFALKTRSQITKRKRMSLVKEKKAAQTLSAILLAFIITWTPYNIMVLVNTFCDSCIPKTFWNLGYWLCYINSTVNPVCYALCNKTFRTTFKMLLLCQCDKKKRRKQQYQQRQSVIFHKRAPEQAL

C[C@@H]1C(=O)N(C[C@H](Cc2ccccc2)N(Cc2ccccc2)Cc2ccccc2)[C@]1(Cc1ccccc1)C(=O)OC(C)(C)C [RGM8-51, 4(S)-Benzyl-3S-methyl-4-(tert-butoxy)carbonyl-1-[(2′S-dibenzylamino-3′-phenyl)prop-1′-yl]-2-oxoazetidine]
Binding hM3 (%), inhibition of specific binding ([1]; 10 μM): did not show significant affinity | inhibition at 10 µM ([1]; read-out: Binding hM3 (%), inhibition of specific binding): -4.1 ± 3.1% | effect on membrane resting potential (MRP) [2]: did not alter the MRP
